# Source: patent US8148095B2, “Methods for predicting psychotropic drugs which elicit weight gain” (The Johns Hopkins University, priority 2006, dated 2012)
# pIC50: −log10 of the molar value. Like-named read-outs stand apart in the source and are kept apart here.
# Assays:
# hypothalamic AMPK = assay: Phospho-AMPK in hypothalamic slices by Western blotting; assay type: cell-based, mice; settings: 30 min; for effect on hypothalamic phospho-AMPK: various concentrations; for levels of phospho-AMPK: 500 nM drug
# Source text: FIGS. 1A-1F. AAPDs activate AMPK in hypothalamic slices.
# The slices were dispersed in artificial cerebrospinal fluid buffer.
# AMPK = assay: Phospho-AMPK in tissues of intact mice by Western blotting; assay type: in vivo; settings: for stimulation of hypothalamic phospho-AMPK in intact animals: triprolidine 3 mg/kg i.p., 3 h
# Protocol: (§1) FIGS. 2A-2D. AAPDs activate AMPK in intact animals. […] Hypothalami were removed and tissue lysates analyzed for phospho-AMPK or α2-AMPK activity. […] Different parts of brain were isolated and α2-AMPK activity was assayed. Bars represent the mean±SE of three independent lysates performed in triplicate. (* Student's t-test, n=5)
# FIGS. 5A-5F. […] Cerebellum and liver were removed and phosphorylated AMPK (AMPK-P) detected by western blotting. Each lane represents tissue from individual mouse. […] Hypothalamus, cerebellum and liver were removed and phosphorylated AMPK (AMPK-P) detected by western blotting. Each lane represents a tissue from individual mouse. […] Hypothalamus and cerebellum were removed and phosphorylated AMPK (AMPK-P) detected by western blotting. Each lane represents a tissue from individual mouse. […] Hypothalami were removed and phosphorylated AMPK (AMPK-P) detected by western blotting. Each lane represents a tissue from an individual mouse. […] Hypothalami were removed and AMPK activity monitored as described in Material and Methods. Bars represent the mean±SE of three independent lysates performed in triplicate.
# (§2) Experiments were done at age 8-10 weeks. All drugs were administered by i.p. injection. […] Procedures were approved by guidelines of the Johns Hopkins University School of Medicine Institutional Animal Care and Use Committee.
# All drugs were purchased from Toronto Research Chemicals Inc. (Toronto, Canada). […] The drug was diluted with 8.5 ml saline solution, and the appropriate doses were administrated to mice. For control mice, the same solution was injected without a drug. For in vitro assays, drugs were dissolved in DMSO.
# α2-AMPK = α2-AMPK activity in tissue lysates of intact mice; assay type: in vivo; settings: leptin 3 mg/kg
# Protocol: as §1, §2
# histamine H1 receptors = molecular target: T1, histamine H1 receptors (Rattus norvegicus, UniProt P31390); assay: Histamine H1 receptor binding, [3H]mepyramine displacement in rat brain membranes; settings: 12 concentrations 30 pM to 10 μM, means of 3 determinations
# T1 construct: from tissue; host or cells: rat forebrain membranes
# Protocol: Receptor binding was assayed using rat brain membranes incubated with [^3H]mepyramine and 12 concentrations of drugs ranging from 30 pM to 10 μM in triplicate. […] Hypothalamic Slices
# Briefly, rats were killed by decapitation and the forebrains removed. Brains were homogenized in 30 vol of Na-K phosphate buffer, pH 7.5, and centrifuged at 48,000×g for 10 min. The tissue was resuspended in buffer and re-centrifuged for an additional 3 times. Tissue was resuspended in buffer at 15 mg/ml.
# Tissue (0.2 ml) was added to tubes containing 25 μl of drug and 25 μl of [3H]mepyramine (30 nM). Non-specific binding was determined in the presence of 1 μM triprolidine.
# phospho-AMPK = settings: ziprasidone 3 mg/kg i.p., 3 h
# Protocol: Immunohistochemistry was performed with an antibody specific for phospho-AMPK. (FIG. 4D) Quantification of immunohistochemistry. Bars represent the mean±SE of five independent slides. (*p<0.005, **p<0.001 Student's t-test, n=5)
# C57BL/6 mice or HR1−/− mice (8-10 weeks) were perfused with 4% paraformaldehyde maintained at 37° C. Organs were post-fixed 2 h at room temperature and cryoprotected overnight at 4° C. (30% sucrose in PBS). Free-floating sections (45 μm) were quenched with 3% H2O2 in water for 10 min at room temperature, washed in TBS-T (16 mM Tris pH 7.4, 140 mM sodium chloride, and 0.1% tween-20), and antigen retrieved for 30 min in a 70° C. water bath (10 mM sodium citrate in TBS-T). Sections were blocked (5% NGS in TBS-T) for 1 h at room temperature and incubated with a mouse anti-phospho-AMPKα antibody (Cell Signaling, Danvers, Mass.) diluted 1:200 into the blocking solution overnight at 4° C. Subsequent washes were conducted in TBST, and labeling was visualized with the Vectastain Elite ABC kit (Vector Laboratories, Burlingame, Calif.). Images were quantified with AlphaEaseFC program.
# T1 sequence (P31390 whole entry): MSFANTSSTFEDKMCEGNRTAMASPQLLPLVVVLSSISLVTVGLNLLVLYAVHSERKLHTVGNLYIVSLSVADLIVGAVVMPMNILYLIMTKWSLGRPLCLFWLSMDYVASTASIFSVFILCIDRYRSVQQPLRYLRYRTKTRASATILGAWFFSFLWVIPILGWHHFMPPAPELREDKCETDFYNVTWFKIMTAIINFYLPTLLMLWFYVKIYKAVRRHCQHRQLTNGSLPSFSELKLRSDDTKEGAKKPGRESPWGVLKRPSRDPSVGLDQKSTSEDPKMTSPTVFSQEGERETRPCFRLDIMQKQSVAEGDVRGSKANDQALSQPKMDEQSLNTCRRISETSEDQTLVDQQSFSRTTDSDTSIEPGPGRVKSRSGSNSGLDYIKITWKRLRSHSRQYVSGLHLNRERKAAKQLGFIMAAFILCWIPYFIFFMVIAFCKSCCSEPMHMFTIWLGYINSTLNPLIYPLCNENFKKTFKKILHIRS
compound,measurement,setting,value
leptin,effect on hypothalamic phospho-AMPK,hypothalamic AMPK,reductions
same,hypothalamic phospho-AMPK,"AMPK; intact mice, leptin 3 mg/kg",reduces
same,hypothalamic AMPK catalytic activity,α2-AMPK,reduces
Cc1ccc(/C(=C\CN2CCCC2)c2ccccn2)cc1 [triprolidine],stimulation of phospho-AMPK,hypothalamic AMPK; triprolidine 50 or 500 nM vs clozapine 200 nM,to the same extent as clozapine
same,stimulation of hypothalamic phospho-AMPK in intact animals,AMPK,to the same extent as clozapine
same,stimulation of hypothalamic phospho-AMPK in intact animals,AMPK; listed as Triprolidine,activates
O=C(CCCN1CCC(O)(c2ccc(Cl)cc2)CC1)c1ccc(F)cc1 [Haloperidol],levels of phospho-AMPK,hypothalamic AMPK,fail to stimulate
Cc1nc2n(c(=O)c1CCN1CCC(c3noc4cc(F)ccc34)CC1)CCCC2 [Risperidone],levels of phospho-AMPK,hypothalamic AMPK,fail to stimulate
insulin,effect on hypothalamic phospho-AMPK,hypothalamic AMPK,reductions
O=C1Cc2cc(CCN3CCN(c4nsc5ccccc45)CC3)c(Cl)cc2N1 [Ziprasidone],pIC50,histamine H1 receptors,6.82
same,levels of phospho-AMPK,hypothalamic AMPK,fail to stimulate
same,phospho-AMPK in the paraventricular nucleus / hypothalamus,phospho-AMPK,fails to alter
same,phospho-AMPK in the paraventricular nucleus / hypothalamus,phospho-AMPK; listed as Ziprasodine,no effect
NCCc1c[nH]cn1 [histamine],effect of histamine on phospho-AMPK,hypothalamic AMPK; different concentrations of histamine,decreases
O=C1CCc2ccc(OCCCCN3CCN(c4cccc(Cl)c4Cl)CC3)cc2N1 [Aripipirazole],pIC50,histamine H1 receptors,< 5.52
same,levels of phospho-AMPK,hypothalamic AMPK,fail to stimulate
